69 compounds from patent US8022225B2, “Triazole derivative” (Taisho Pharmaceutical Co., Ltd, priority 2004, dated 2011) can be followed below.

The target in this test is T1, human Edg-1(S1P1) (Homo sapiens, UniProt P21453).
T1 construct: expressed in transfected cells; host or cells: HEK-293
Briefly: Cell system binding test: inhibition of [3H]-S1P binding to Edg-1(S1P1) gene transferred HEK-293 cells. The settings on record: [3H]-S1P 10 nM. As to the method:
Cells (1×10^5 cells/well) obtained as described above were seeded in poly-L-lysine-coated 96-well plates (Corning Incorporated), and then incubated in a 5% carbon dioxide gas incubator for 12 hours at 37° C. with the use of an MEM medium (Invitrogen Corporation) containing 100 U/mL of penicillin, 100 μg/mL of streptomycin, a 1% MEM nonessential amino acid solution, and 10% FCS. […] After the cells were washed twice with the buffer, they were solubilized with 100 μL of Opti Phase Supermix (produced by Perkin-Elmer), and measured for radioactivity by means of Micro Beta (produced by Perkin-Elmer).
Inhibition rate(%)=[1−(A−C)/(B−C)]×100

Where [1] appears, read: 10 μM compound, read-out: Cell system binding test % inhibition (10 μM).
Setting [2] is: test compound 10^-5 M, 1 hour, read-out: Edg-1(S1P1) binding inhibition rate (cell system binding test).

The structures appear in SMILES notation. Like-named read-outs stand apart in the source and are kept apart here.

T1 sequence (P21453 whole entry): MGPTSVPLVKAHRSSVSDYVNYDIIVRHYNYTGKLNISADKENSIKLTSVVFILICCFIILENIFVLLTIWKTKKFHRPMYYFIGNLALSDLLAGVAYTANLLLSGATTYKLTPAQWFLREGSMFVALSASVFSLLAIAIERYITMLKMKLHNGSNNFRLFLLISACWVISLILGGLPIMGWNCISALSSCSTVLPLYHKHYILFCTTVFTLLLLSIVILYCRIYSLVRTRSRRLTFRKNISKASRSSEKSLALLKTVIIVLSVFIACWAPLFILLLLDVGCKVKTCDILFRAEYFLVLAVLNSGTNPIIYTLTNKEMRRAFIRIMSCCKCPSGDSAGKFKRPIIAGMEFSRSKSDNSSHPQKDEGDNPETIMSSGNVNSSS

Take `CCn1c(OC)nnc1[C@@H](C)NS(=O)(=O)Cc1cccc([N+](=O)[O-])c1` [Compound 304]: the inhibition (in general, the relative decrease from the control value, in per cent) at 10 µM under setting [1] was determined as 79.8%.

In the case of `CCn1c(OC)nnc1[C@@H](C)NS(=O)(=O)c1ccc(S(C)(=O)=O)cc1` [Compound 228], under setting [1], the inhibition at 10 µM worked out at 93.9%.

For `CCn1c(OC)nnc1[C@@H](C)NS(=O)(=O)CC1CCCCC1` [Compound 333], under setting [1], the inhibition at 10 µM was determined as 92.8%.

As to `CCn1c([C@@H](C)NS(=O)(=O)c2ccc(Cl)cc2)nnc1[S+](C)[O-]` (stereo partly drawn) [Compound 180, 4-Chloro-N-{(1R)-1-[4-ethyl-5-(methylsulfinyl)-4H-1,2,4-triazol-3-yl]ethyl}benzenesulfonamide], the inhibition at 10 µM under setting [1] came to 48.9%.

Take `CCn1c(OC)nnc1[C@@H](C)NS(=O)(=O)Cc1ccc(Cl)cc1` [Compound 293]: the inhibition at 10 µM under setting [1] was 31.8%.

For the compound `C=CCSc1nnc(C(CC)NS(=O)(=O)c2ccc(Cl)cc2)n1C` (stereo not drawn) [Compound 105], the inhibition at 10 µM under setting [1] came to 71.5%.

With `CCn1c(OC)nnc1[C@H](NS(=O)(=O)c1ccc(Cl)cc1)[C@H](C)O` [Compound 506], the inhibition at 10 µM under setting [2] amounted to 88.6%.

Turning to `CCn1c(OC)nnc1[C@@H](C)NS(=O)(=O)c1ncc(C)s1` [Compound 421], the inhibition at 10 µM under setting [1] is 71.3%.

Regarding `CCn1c(OC)nnc1[C@@H](C)NS(=O)(=O)c1ccccc1C(=O)OC` [Compound 259], under setting [1], the inhibition at 10 µM came to 86.8%.

Regarding `CCn1c(OC)nnc1[C@@H](C)NS(=O)(=O)c1ccc(C(=O)OC)o1` [Compound 256], under setting [1], the inhibition at 10 µM was determined as 95.6%.

As to `CCCCNC(=O)Nc1ccc(S(=O)(=O)N[C@H](C)c2nnc(OC)n2CC)cc1` [Compound 353], under setting [1], the inhibition at 10 µM stood at 23.3%.

For the compound `CCn1c(OC)nnc1[C@@H](C)NS(=O)(=O)c1cc(Cl)ccc1F` [Compound 316], the inhibition at 10 µM under setting [1] is 92.9%.

Consider `CCn1c(OC)nnc1[C@@H](C)NS(=O)(=O)c1ccc(Cl)c(S(N)(=O)=O)c1` [Compound 364], for which the inhibition at 10 µM under setting [1] turned out to be 27%.

For `CCCCCCCCS(=O)(=O)N[C@H](C)c1nnc(OC)n1CC` [Compound 236], the inhibition at 10 µM under setting [1] amounted to 98.9%.

Consider `CCn1c(OC)nnc1[C@@H](C)NS(=O)(=O)c1cccc(C(=O)c2ccncc2)c1` [Compound 357], for which the inhibition at 10 µM under setting [1] was found to be 85.6%.

Regarding `CCn1c(OC)nnc1[C@@H](C)NS(=O)(=O)c1cccc2nsnc12` [Compound 340], the inhibition at 10 µM under setting [1] is 77.5%.

Turning to `CCn1c(OC)nnc1[C@@H](C)NS(=O)(=O)c1sc(C)nc1C` [Compound 339], under setting [1], the inhibition at 10 µM is 92.1%.

Take `CCn1c(OC)nnc1[C@@H](C)NS(=O)(=O)c1ccc(OC)cc1` [Compound 508]: the inhibition at 10 µM under setting [2] turned out to be 100%.

For `CCn1c(OC)nnc1[C@@H](C)NS(=O)(=O)c1ccc(O)cc1` [Compound 422], the inhibition at 10 µM under setting [1] turned out to be 47.5%.

As to `CCn1c(OC)nnc1[C@@H](C)NS(=O)(=O)c1ccc(F)cc1F` [Compound 279], the inhibition at 10 µM under setting [1] was 101%.

For `C=CCSc1nnc([C@@H](Cc2ccccc2)NS(=O)(=O)c2ccc(Cl)cc2)n1CCCC` [Compound 145], the inhibition at 10 µM under setting [1] was determined as 46%.

For `CCOc1nnc([C@@H](C)NS(=O)(=O)c2cccc(O)c2)n1CC` [Compound 419], under setting [1], the inhibition at 10 µM was 67.8%.

`CCn1c(OC)nnc1C(CCc1ccccc1)NS(=O)(=O)c1ccc(Cl)cc1` (stereo not drawn) [Compound 441]: the inhibition at 10 µM under setting [1] was determined as 14.7%.

On to `CCn1c(OC)nnc1[C@@H](C)NS(=O)(=O)c1c(C)nn(C)c1Cl` [Compound 253], for which, under setting [1], the inhibition at 10 µM was 83.4%.

Consider `CCn1c(OC)nnc1[C@@H](C)NS(=O)(=O)c1cnoc1C` [Compound 336], for which, under setting [1], the inhibition at 10 µM turned out to be 89.3%.

Consider `CCn1c(OC)nnc1[C@@H](C)NS(=O)(=O)CCCOc1ccc(OC)cc1` [Compound 318], for which, under setting [1], the inhibition at 10 µM is 68.5%.

As for `CCn1c(OC)nnc1[C@@H](C)NS(=O)(=O)c1cccc(Oc2ccccc2OC)c1` [Compound 324], under setting [1], the inhibition at 10 µM was 88.1%.

Take `C=CCSc1nnc([C@@H](Cc2ccccc2)NS(=O)(=O)c2ccc(Cl)cc2)n1C1CCCC1` [Compound 164]: the inhibition at 10 µM under setting [1] was determined as 40.4%.

For `CCCS(=O)(=O)N[C@H](C)c1nnc(OC)n1CC` [Compound 239], the inhibition at 10 µM under setting [1] worked out at 92.7%.

For `CCn1c(OC)nnc1[C@@H](C)NS(=O)(=O)c1c(Cl)cccc1Cl` [Compound 219], under setting [1], the inhibition at 10 µM stood at 95.9%.

As to `CCn1c(OC)nnc1[C@@H](C)NS(=O)(=O)c1ccccc1I` [Compound 283], the inhibition at 10 µM under setting [1] turned out to be 73.9%.

On to `CCn1c(SCc2ccc(C(C)(C)C)cc2)nnc1C(C)NS(=O)(=O)c1ccc(Cl)cc1` (stereo not drawn) [Compound 89], for which the inhibition at 10 µM under setting [1] amounted to 89.3%.

Consider `CCn1c(OC)nnc1[C@@H](C)NS(=O)(=O)c1ccc(CCC(=O)OC)cc1` [Compound 301], for which the inhibition at 10 µM under setting [1] came to 78.3%.

For the compound `CCn1c(OC)nnc1[C@@H](C)NS(=O)(=O)c1ccc(-c2cnco2)cc1` [Compound 346], the inhibition at 10 µM under setting [1] amounted to 38.5%.

As to `CCCC(NS(=O)(=O)c1ccc(Cl)cc1)c1nnc(SCc2ccc(C)cc2)n1C` (stereo not drawn) [Compound 127], under setting [1], the inhibition at 10 µM is 63.6%.

On to `CCn1c(OC)nnc1[C@@H](C)NS(=O)(=O)Cc1ccc(F)cc1` [Compound 294], for which the inhibition at 10 µM under setting [1] amounted to 64.5%.

As for `CCCC(NS(=O)(=O)c1ccc(Cl)cc1)c1nnc(SCc2ccccc2)n1C` (stereo not drawn) [Compound 126], the inhibition at 10 µM under setting [1] was 77%.

On to `CCn1c(OC)nnc1[C@@H](C)NS(=O)(=O)c1c(F)cccc1F` [Compound 298], for which the inhibition at 10 µM under setting [1] came to 85.7%.

Turning to `CCn1c(OC)nnc1[C@@H](C)NS(=O)(=O)c1ccccc1OC(F)(F)F` [Compound 276], the inhibition at 10 µM under setting [1] amounted to 88.9%.

Take `CCn1c(OC)nnc1[C@@H](C)NS(=O)(=O)c1ccccc1-c1ccccc1` [Compound 370]: the inhibition at 10 µM under setting [1] was determined as 32.3%.

Take `CCn1c(OC)nnc1[C@@H](C)NS(=O)(=O)Cc1ccccn1` [Compound 323]: the inhibition at 10 µM under setting [1] came out at 64.4%.

For `CCn1c(OC)nnc1[C@@H](C)NS(=O)(=O)c1nc(C)cs1` [Compound 423], under setting [1], the inhibition at 10 µM amounted to 59.2%.

Consider `C=CCSc1nnc([C@@H](Cc2ccccc2)NS(=O)(=O)c2ccc(Cl)cc2)n1C(C)CC` (stereo partly drawn) [Compound 149], for which the inhibition at 10 µM under setting [1] came to 63.4%.

Consider `CCn1c(OC)nnc1[C@@H](C)NS(=O)(=O)Cc1cccc(C(F)(F)F)c1` [Compound 295], for which the inhibition at 10 µM under setting [1] worked out at 66.1%.

Regarding `CCn1c(OC)nnc1[C@@H](C)NS(=O)(=O)c1ccco1` [Compound 442], the inhibition at 10 µM under setting [1] was 40.2%.

Consider `CCn1c(OC)nnc1[C@@H](C)NS(=O)(=O)c1ccccc1OC` [Compound 332], for which the inhibition at 10 µM under setting [1] came to 35.5%.

In the case of `CCn1c(OC)nnc1[C@@H](C)NS(=O)(=O)CCN1C(=O)c2ccccc2C1=O` [Compound 331], under setting [1], the inhibition at 10 µM came to 23.9%.

For `CCn1c(OC)nnc1[C@@H](C)NS(=O)(=O)c1ccc(NC(=O)NC)c(Cl)c1` [Compound 362], the inhibition at 10 µM under setting [1] was determined as 28.2%.

Take `CCn1c(OC)nnc1[C@@H](C)NS(=O)(=O)c1cccc(C(=O)c2ccccn2)c1` [Compound 358]: the inhibition at 10 µM under setting [1] was 79.6%.

Turning to `CCn1c(OC)nnc1[C@@H](C)NS(=O)(=O)c1ccccc1Cl` [Compound 194], the inhibition at 10 µM under setting [1] is 85.6%.

Turning to `CCn1c(OC)nnc1[C@@H](C)NS(=O)(=O)Cc1ccccc1[N+](=O)[O-]` [Compound 234], the inhibition at 10 µM under setting [1] amounted to 90.9%.

For `CCn1c(OC)nnc1[C@@H](C)NS(=O)(=O)Cc1ccncc1` [Compound 329], under setting [1], the inhibition at 10 µM amounted to 38.5%.

Take `CCn1c(OC)nnc1[C@@H](C)NS(=O)(=O)c1cccnc1` [Compound 373]: the inhibition at 10 µM under setting [1] came to 73.4%.

On to `CCn1c(OC)nnc1[C@@H](C)NS(=O)(=O)c1c(C)noc1C` [Compound 254], for which, under setting [1], the inhibition at 10 µM was determined as 84.6%.

Take `C=CCSc1nnc([C@@H](Cc2ccccc2)NS(=O)(=O)c2ccc(Cl)cc2)n1CCN1CCOCC1` [Compound 153]: the inhibition at 10 µM under setting [1] amounted to 26.8%.

On to `CCn1c(OC)nnc1[C@@H](C)NS(=O)(=O)c1ccc(Oc2ccccc2)cc1` [Compound 278], for which, under setting [1], the inhibition at 10 µM came out at 70.9%.

With `CCn1c(OC)nnc1[C@@H](C)NS(=O)(=O)c1ccc(C)cn1` [Compound 424], the inhibition at 10 µM under setting [1] came to 58.7%.

As to `CCn1c(OC)nnc1[C@@H](C)NS(=O)(=O)c1cc(Cl)ccc1OC` [Compound 300], the inhibition at 10 µM under setting [1] turned out to be 95%.

For the compound `CCn1c(OC)nnc1[C@@H](C)NS(=O)(=O)c1ccc(C)o1` [Compound 425], the inhibition at 10 µM under setting [1] was 83.6%.

For the compound `C=CCSc1nnc([C@@H](Cc2ccccc2)NS(=O)(=O)c2ccc(Cl)cc2)n1CC(C)C` [Compound 147], under setting [1], the inhibition at 10 µM is 75.2%.

Consider `CCn1c(OC)nnc1[C@@H](C)NS(=O)(=O)Cc1cccnc1` [Compound 325], for which the inhibition at 10 µM under setting [1] came out at 36.5%.

Turning to `CCn1c(OC)nnc1[C@@H](C)NS(=O)(=O)Cc1ccccc1` [Compound 244], under setting [1], the inhibition at 10 µM turned out to be 92.3%.

On to `C=CCSc1nnc([C@@H](C)NS(=O)(=O)c2ccc(Cl)cc2)n1C` [Compound 92], for which the inhibition at 10 µM under setting [1] was 88.3%.

As to `CCn1c(OC)nnc1[C@@H](C)NS(=O)(=O)c1ccccc1F` [Compound 280], the inhibition at 10 µM under setting [1] is 91%.

On to `CCn1c(OC)nnc1[C@@H](C)NS(=O)(=O)c1ccc2oc(=O)ccc2c1` [Compound 363], for which the inhibition at 10 µM under setting [1] came to 100%.

Turning to `CCn1c(OC)nnc1[C@@H](C)NS(=O)(=O)CC(c1ccccc1)c1ccccc1` [Compound 297], the inhibition at 10 µM under setting [1] stood at 23.8%.

Turning to `CCn1c(OC)nnc1[C@@H](C)NS(=O)(=O)c1ccsc1` [Compound 342], the inhibition at 10 µM under setting [1] worked out at 88.4%.

In the case of `C=CCSc1nnc([C@@H](Cc2ccccc2)NS(=O)(=O)c2ccc(Cl)cc2)n1CCOC` [Compound 151], the inhibition at 10 µM under setting [1] is 41.6%.

In the case of `CCn1c(OC)nnc1[C@@H](CO)NS(=O)(=O)c1ccc(Cl)cc1` [Compound 483], the inhibition at 10 µM under setting [2] worked out at 88.9%.
